Measurements taken from patent US8240312B2, “Method and means for exerting a phototoxic effect of visible light on microorganisms” (Osnat Feuerstein, priority 2004, dated 2012).

Experiments:
[1] = system: F. nucleatum; experiment: Bacterial survival after 20 sec blue light exposure in the presence of scavengers; assay type: cell-based, Fusobacterium nucleatum; details: F. nucleatum in PBS suspension, halogen lamp, 23 J/cm^2, scavengers 30 to 100 μM, relative to non-exposed control (FIG. 5D)
Procedure: (§1) Bacteria: P. gingivalis, F. nucleatum, S. mutans, S. faecalis, P. gingivalis and F. nucleatum were grown and incubated at 37° C. in an anaerobic jar at <1% O2 and 9-13% CO2. S. mutans and S. faecalis were grown and incubated under aerobic conditions at 37° C. All the strains were sub-cultured twice before exposure to light. The bacterial concentration following 24 h incubation was standardized by dilution with sterile broth to about 5×10^6 cfu.
(§2) Determination of bacterial survival: Following exposure of the bacteria in suspension to light, samples were diluted and applied to the agar plates. Survival of these bacteria were determined, as well as of the duplicates of single bacteria on agar, by counting cfu following incubation. P. gingivalis and F. nucleatum were cultured under anaerobic conditions and S. mutans and S. faecalis under aerobic conditions at 37° C. until bacterial colonies were visible (1-5 days). The percentage of surviving bacteria was calculated in relation to the control non-exposed samples under similar experimental conditions. Biofilm inhibition in the triplicates bacterial lawn samples was defined as a halo without colony growth appearing in the light-exposed areas. All experiments in which the results of the exposed samples differed from those of the control were repeated at least twice. […]

[2] = system: P. gingivalis; experiment: as above; assay type: cell-based, Porphyromonas gingivalis; details: P. gingivalis in PBS suspension, halogen lamp, 23 J/cm^2, scavengers 30 to 100 μM, relative to non-exposed control (FIG. 5C)
Procedure: as §1, §2

CNC(=S)NC [DMTU, dimethylthiourea]
percent survival of bacteria [1]: 63% | percent survival of bacteria [2]: 48%
